Source: the NIST ThermoML archive (doi:10.1016/j.jct.2005.02.003)
± gives the expanded uncertainty stated by the source.

Assay: molar heat capacity at constant pressure
Settings: 101.33 kPa

CC(C)COC(C)(C)C [isobutyl tert-butyl ether]
Settings | molar heat capacity at constant pressure [J/K/mol]
90.5 K, Crystal | 96.03 ± 1.2
90.83 K, Glass | 103.8 ± 2.4
91.51 K, Crystal | 97.11 ± 1.2
91.79 K, Glass | 104.5 ± 2.4
92.51 K, Crystal | 98.28 ± 1.2
92.74 K, Glass | 105.8 ± 2.4
93.5 K, Crystal | 99.11 ± 1.2
93.68 K, Glass | 107.3 ± 2.5
94.49 K, Crystal | 100.2 ± 1.2
94.62 K, Glass | 107.9 ± 2.5
95 K, Crystal | 100.6 ± 1.2
95.48 K, Crystal | 101.4 ± 1.2
95.55 K, Glass | 107.9 ± 2.5
96.48 K, Crystal | 102.4 ± 1.2
96.51 K, Glass | 109.8 ± 2.5
97.47 K, Crystal | 103.3 ± 1.2
97.47 K, Glass | 111.7 ± 2.5
98.41 K, Glass | 112.7 ± 2.5
98.47 K, Crystal | 104.1 ± 1.2
99.31 K, Glass | 114.5 ± 2.5
99.46 K, Crystal | 105 ± 1.2
100 K, Crystal | 105.4 ± 1.2
100.2 K, Glass | 113.8 ± 2.5
100.45 K, Crystal | 105.8 ± 1.2
101.1 K, Glass | 115.2 ± 2.5
101.44 K, Crystal | 106.9 ± 1.2
101.97 K, Glass | 117.3 ± 2.6
102.44 K, Crystal | 108.1 ± 1.2
102.84 K, Glass | 117.8 ± 2.6
103.44 K, Crystal | 108.7 ± 1.2
103.72 K, Glass | 119 ± 2.6
104.44 K, Crystal | 109.5 ± 1.2
104.61 K, Glass | 120.2 ± 2.6
105.43 K, Crystal | 110.5 ± 1.2
105.51 K, Glass | 121.5 ± 2.6
106.41 K, Crystal | 111.5 ± 1.3
106.42 K, Glass | 123.1 ± 2.6
107.34 K, Glass | 124.7 ± 2.6
107.39 K, Crystal | 112.7 ± 1.3
108.29 K, Glass | 126.4 ± 2.6
108.37 K, Crystal | 113.4 ± 1.3
109.25 K, Glass | 128.9 ± 2.7
109.35 K, Crystal | 114.2 ± 1.3
110 K, Crystal | 114.9 ± 1.3
110.23 K, Glass | 130 ± 2.7
110.32 K, Crystal | 115.2 ± 1.3
111.21 K, Glass | 134 ± 2.7
111.31 K, Crystal | 116 ± 1.3
112.18 K, Glass | 138.9 ± 2.7
112.29 K, Crystal | 117 ± 1.3
113.14 K, Glass | 146.1 ± 2.7
113.28 K, Crystal | 117.8 ± 1.3
114.06 K, Glass | 162.4 ± 2.9
114.26 K, Crystal | 118.6 ± 1.3
114.91 K, Glass | 193.9 ± 3.2
115.24 K, Crystal | 119.6 ± 1.3
115.82 K, Liquid | 198.1 ± 0.83
116.22 K, Crystal | 120.5 ± 1.3
116.8 K, Liquid | 199.6 ± 0.83
117.2 K, Crystal | 121.3 ± 1.3
117.8 K, Liquid | 200 ± 0.83
118.17 K, Crystal | 122.1 ± 1.4
118.8 K, Liquid | 200.4 ± 0.83
119.15 K, Crystal | 123.1 ± 1.4
119.8 K, Liquid | 200.7 ± 0.83
120 K, Crystal | 124 ± 1.4
120.12 K, Crystal | 124.2 ± 1.4
120.79 K, Liquid | 201 ± 0.83
121.09 K, Crystal | 124.8 ± 1.4
121.77 K, Liquid | 201.5 ± 0.83
122.76 K, Liquid | 202 ± 0.83
123.02 K, Crystal | 126.6 ± 1.4
123.76 K, Liquid | 202.1 ± 0.83
123.99 K, Crystal | 127.8 ± 1.4
124.76 K, Liquid | 202.3 ± 0.83
124.96 K, Crystal | 128.5 ± 1.4
125.75 K, Liquid | 202.9 ± 0.83
125.92 K, Crystal | 129.5 ± 1.4
126.75 K, Liquid | 202.9 ± 0.83
126.91 K, Crystal | 130.2 ± 1.4
127.1 K, Crystal | 130.5 ± 1.4
127.74 K, Liquid | 203.5 ± 0.83
127.9 K, Crystal | 130.9 ± 1.4
128.73 K, Liquid | 204.2 ± 0.83
128.89 K, Crystal | 131.3 ± 1.4
129.13 K, Crystal | 131.9 ± 1.5
129.7 K, Liquid | 204.7 ± 0.83
130 K, Crystal | 132.7 ± 1.5
130.13 K, Crystal | 132.5 ± 1.5
130.64 K, Liquid | 204.9 ± 0.83
131.57 K, Liquid | 205 ± 0.83
132.12 K, Crystal | 134.9 ± 1.5
132.51 K, Liquid | 205.5 ± 0.83
133.1 K, Crystal | 135.4 ± 1.5
133.45 K, Liquid | 205.9 ± 0.83
134.08 K, Crystal | 135.9 ± 1.5
134.39 K, Liquid | 206.2 ± 0.83
135.33 K, Liquid | 206.4 ± 0.83
136.02 K, Crystal | 137.6 ± 1.5
136.26 K, Liquid | 206.9 ± 0.83
136.98 K, Crystal | 138.6 ± 1.5
137.2 K, Liquid | 207.9 ± 0.83
137.94 K, Crystal | 138.9 ± 1.5
138.89 K, Crystal | 140 ± 1.5
139.84 K, Crystal | 140.1 ± 1.5
140 K, Crystal | 140.5 ± 1.5
